Test system: NL4-3 strain of HIV-1
Assay: Inhibition of HIV replication: cyto-protection in Cell-Titer-Glo viability assay, MT4 cells infected with NL4-3 virus
Type: cell-based
Conditions: Human immunodeficiency virus 1, NL43, 120 h, concentration leading to 50% of cyto-protection, 5 days incubation, CellTiter-Glo luminescence
Procedure: The antiviral activity, particularly against HIV, of compounds according to the invention is evaluated by the protocol described below.
Preparation of Virus Stock of the NL4-3 Strain of HIV-1 (Adachi et al, J Virol, 1986, 59(2):284-91).
The virus was prepared as described in Lopez et al (Lopez et al, Proc Natl Acad Sci USA., 2006, 103(40):14947-52, by transfecting 2×10^6 293 T cells (CRL-1573, ATCC) with following modifications: 6 μg of NL4-3 proviral DNA molecular clone were mixed with Fugene 6 transfection reagent from Roche, and used according to manufacturer's instructions. Forty eight hours later, transfected cell supernatants were harvested, filtered through 0.45-μm-pore-size filters, quantified for HIV-1 p24 antigen by using a Innotest HIV antigen mAb assay (Ingen) according to manufacturer's instructions, and used in infection experiments.
Serial dilutions of compounds to be tested were prepared in complete RPMI medium from 10 mM DMSO stock solutions, and distributed in a volume of 20 μL in 96 well Falcon 353072 Microtest™ tissue culture plate, in order to get 0.5% DMSO final concentration in each well, after the addition of infected cells. Control wells contained also 0.5% DMSO final concentration but no compound.
MT^4 cells (from the NIH AIDS Research and Reference Reagent Program) in RPMI complete medium were counted (10×10^6 cells per well in Falcon 353047 Multiwell™ 24 well) and infected for 2 hours at 37°, at a multiplicity of infection (moi) of 0.0001-0.00001. Cells were then centrifuged 3 min at 3000 rpm, and washed two times in 1 ml PBS to remove viruses that have not entered in cells. Infected cells were resuspended in complete RPMI at 1.25×10^6 cells/ml, and 80 μl of infected cells were distributed in each well containing compounds to be tested or control wells. The plates were then incubated at 37° for 5 days.
Assay Used to Measure the Inhibition of HIV Replication by the Compounds (According to (According to Gregg S. Jones et al., Antimicrobial Agents and Chemotherapy, 2009, 53 (3): 1194-1203).
After 5 days of incubation, 50 μl of CellTiter-Glo reagent (Promega Biosciences, Inc., Madison Wis., USA) were added to each well. Cell lysis was carried out at room temperature during 10 min, 150 μl of lysates were transferred in Packard Optiplate 96 well, and luminescence was read on a Fluoroskan (Thermo Scientific).
The EC50, or effective concentration 50, is the concentration of compound leading to 50% of cyto-protection in a Cell-Titer-Glo® viability assay based on MT^4 cells infected with NL4-3 virus (table 1).

Compound	EC50
CC(C)(C)OC(C(=O)O)c1c(C(F)(F)F)ccc(-c2ccc(=O)n(CC3CC3)c2)c1-c1ccc2c(c1)CCCO2 (stereo not drawn) [Example 27, 2-(tert-butoxy)-2-{3-[1-(cyclopropylmethyl)-6-oxo-1,6-dihydropyridin-3-yl]-2-(3,4-dihydro-2H-1-benzopyran-6-yl)-6-(trifluoromethyl)phenyl}acetic acid]	79 nM
CCCc1cc(-c2ccc(C(F)(F)F)c(C(OC(C)(C)C)C(=O)O)c2-c2ccc3c(c2)CCCO3)ccn1 (stereo not drawn) [Example 28, 2-(tert-butoxy)-2-[2-(3,4-dihydro-2H-1-benzopyran-6-yl)-3-(2-propylpyridin-4-yl)-6-(trifluoromethyl)phenyl]acetic acid]	78 nM
CCCc1cccc(-c2ccc(C(F)(F)F)c(C(OC(C)(C)C)C(=O)O)c2-c2ccc3c(c2)CCCO3)c1 (stereo not drawn) [Example 29, 2-(tert-butoxy)-2-[2-(3,4-dihydro-2H-1-benzopyran-6-yl)-3-(3-propylphenyl)-6-(trifluoromethyl)phenyl]acetic acid]	430 nM
CC(C)(C)OC(C(=O)O)c1c(C(F)(F)F)ccc(-c2ccc(=O)n(CC3CCC3)c2)c1-c1ccc2c(c1)CCCO2 (stereo not drawn) [Example 30, 2-(tert-butoxy)-2-{3-[1-(cyclobutylmethyl)-6-oxo-1,6-dihydropyridin-3-yl]-2-(3,4-dihydro-2H-1-benzopyran-6-yl)-6-(trifluoromethyl)phenyl}acetic acid]	67 nM
CC(C)(C)OC(C(=O)O)c1c(C(F)(F)F)ccc(-c2ccc(=O)n(CCC3CC3)c2)c1-c1ccc2c(c1)CCCO2 (stereo not drawn) [Example 31, 2-(tert-butoxy)-2-{3-[1-(2-cyclopropylethyl)-6-oxo-1,6-dihydropyridin-3-yl]-2-(3,4-dihydro-2H-1-benzopyran-6-yl)-6-(trifluoromethyl)phenyl}acetic acid]	260 nM
CC(C)Cn1cc(-c2ccc(C(F)(F)F)c(C(OC(C)(C)C)C(=O)O)c2-c2ccc3c(c2)CCCO3)ccc1=O (stereo not drawn) [Example 32, 2-(tert-butoxy)-2-[2-(3,4-dihydro-2H-1-benzopyran-6-yl)-3-[1-(2-methylpropyl)-6-oxo-1,6-dihydropyridin-3-yl]-6-(trifluoromethyl)phenyl]acetic acid]	85 nM
Cc1ccc(-c2ccc(=O)n(CC3CCC3)c2)c(-c2ccc3c(c2C)CCCO3)c1C(OC(C)(C)C)C(=O)O (stereo not drawn) [Example 37, 2-(tert-butoxy)-2-[3-(1-cyclobutylmethyl-6-oxo-1,6-dihydro-pyridin-3-yl)-6-methyl-2-[5-methyl-(3,4-dihydro-2H-1-benzopyran-6-yl)]phenyl]acetic acid]	310 nM
CC(C)(C)OC(C(=O)O)c1c(C(F)(F)F)ccc(-c2cccn(CC3CCC3)c2=O)c1-c1ccc2c(c1)CCCO2 (stereo not drawn) [Example 38, 2-(tert-butoxy)-2-{3-[1-(cyclobutylmethyl)-2-oxo-1,2-dihydropyridin-3-yl]-2-(3,4-dihydro-2H-1-benzopyran-6-yl)-6-(trifluoromethyl)phenyl}acetic acid]	130 nM
CC(C)(C)OC(C(=O)O)c1c(C(F)(F)F)ccc(-c2ccc(=O)n(C3CC3)c2)c1-c1ccc2c(c1)CCCO2 (stereo not drawn) [Example 39, 2-(tert-butoxy)-2-[3-(1-cyclopropyl-6-oxo-1,6-dihydropyridin-3-yl)-2-(3,4-dihydro-2H-1-benzopyran-6-yl)-6-(trifluoromethyl)phenyl]acetic acid]	330 nM

From patent US9475802B2, “Inhibitors of viral replication, their process of preparation and their therapeutical uses” (LABORATOIRE BIODIM, priority 2012, dated 2016)
